What was measured:
PD-L1 = PD-L1 expression (real-time PCR, western blot) in colorectal cell lines 48 hours after HDAC inhibitor treatment; type: cell-based; conditions: for PD-L1 expression: IC50 and 1/2 IC50, 48 hours, FIG. 2; for PD-L1 expression at the RNA and protein levels: depending on the concentration
Experimental: The HDAC3 inhibitor experiment was conducted by harvesting cells 48 hours after the treatment at each inhibitor concentration and obtaining RNA and proteins. RGFP966 (S7229) purchased from SellekChem was used as an HDAC3 inhibitor. Specifically, SW620, LS513, DLD-1, CT26, and MC38 were individually cultured, and the experiments were conducted using the IC50 and 1/2 IC50 concentration on the basis of the previously determined IC50 concentration. RNA and protein samples were collected 48 hours after RGFP966 treatment. The RNA samples were isolated using the TRIzol, isopropanol, and chloroform, and the protein samples were collected by lysis with a lysis buffer (Roche, 4719956001). RNA was synthesized into cDNA using a cDNA synthesis kit (Bioneer, K-2044-B), and real-time PCR was performed using a method according to SYBR (Applied Biosystems, 4367659). Proteins were quantified using the Bradford assay (Bio-Rad, 50000006), and subjected to loading, transfer, blocking (3% skim milk; BD, 232100), primary antibody (24 h, 4°C), and secondary antibody sequentially, thereby developing PD-L1.
The HDAC6 inhibitor experiment was conducted by the same method as in the HDAC3 inhibitor experiment of Experimental Example 3, and Nexturastat A HDAC6 selective inhibitor purchased from SellekChem was used as an HDAC6 inhibitor.
The HDAC8 inhibitor experiment was conducted by the same method as in the HDAC3 inhibitor experiment of Experimental Example 3, and PCI-34051 HDAC8 selective inhibitor purchased from SellekChem was used as an HDAC8 inhibitor.
The HDAC6 and HDAC8 inhibitor experiment was conducted by harvesting cells 48 hours after the treatment and then obtaining RNA and proteins.

DLD-1 = assay: IC50 concentration at which 50% of cells are dead, inhibitor treatment for 48 hours; type: cell-based; conditions: Homo sapiens, Table 3, DLD-1 (MSI), read-out: IC50(mean±SD)
Experimental: (§1) The IC50 concentration, which is the concentration at which 50% of cells are dead, was obtained by treating each cell line with an inhibitor at different concentrations for 48 hours and then determining the concentrations at which 50% of the cells were dead. Especially, the results obtained by treating various MSS cell lines (SW620, LS513, HT29, and CT26) with HDAC6i are shown in Table 4 below.

SW620 = assay: as above; type: cell-based; conditions: Homo sapiens, SW-620, Table 3, SW620 (MSS), read-out: IC50(mean±SD)
Experimental: as §1

LS513 = assay: as above; type: cell-based; conditions: Homo sapiens, LS-513, Table 3, LS513 (MSS), read-out: IC50(mean±SD)
Experimental: as §1

PD-L1 and B7H3 = PD-L1 and B7H3 expression after HDAC6 inhibitor treatment in MSI and MSS colorectal cancer cell lines; type: cell-based; conditions: IC50 and half-IC50 concentrations; MSS cell line compared with MSI cell line; FIG. 15
Experimental: The IC50 values of the HDAC6 inhibitor (Nexturastat A) in three MSI colorectal cancer cell lines (DLD-1, HCT116, and MC38) and three MSS colorectal cancer cell lines (SW620, HT29, and CT26) were determined. The cells were then treated with the inhibitor at the IC50 and half-IC50 concentrations (concentration corresponding to 1/2 of the IC50 value), and the expression levels of the immune checkpoint proteins PD-L1 and B7H3 were measured.

CT26 [1] = assay: Animal experiment using HDAC6 inhibitor with or without anti-PD-L1 antibody, CT26 tumors; type: in vivo; conditions: during treatment with HDAC6 inhibitor; FIG. 9D
Experimental: The animal experiment using an HDAC6 inhibitor was conducted using a total of three groups, a control group (control), an HDAC6i (Next A) group, and an HDAC6i (Next A)+anti-PD-L1 group. Nexturastat A (SellekChem) was used as HDAC6i (HDAC6 inhibitor), and #BE0101(Bioxcell) was used as an anti-PD-L1 antibody. CT26 (1x10^6) cells and BALB/C mice were used. Three mice for the control group, three mice for the HDAC6i group, and four mice for the HDAC6i+anti-PD-L1 group were used.
• HDAC6i group: HDAC6i 20 mpk(mg/kg) intraperitoneally injected daily • HDAC6i+anti-PD-L1 group: HDAC6i 20 mpk intra peritoneally injected every day and anti-PD-L1 antibody 10 mpk intra peritoneally injected three times per week.
In addition, paraffin blocks of tumor tissues were prepared for histological staining, and subjected to H&E and TUNEL assay in order to investigate cell death. […]
Additionally, the expression of related genes was examined by real-time PCR after the isolation of RNA form tumors. In the animal experiment according to an example of the present invention, the mRNA changes of PD-L1, TNF-a and IFN-γ (pro-inflammatory cytokines), IL-6 (anti-inflammatory cytokine), and IRF-1 (target gene for JAK2/STAT1 signaling) were measured, and the results are shown in FIG. 11.

HT29 = assay: IC50 concentration at which 50% of cells are dead, inhibitor treatment for 48 hours; type: cell-based; conditions: Homo sapiens, HT-29; Table 4; HT29, MSS (48hr); read-out: IC50(mean±SD)
Experimental: as §1

CT26 [2] = assay: as above; type: cell-based; conditions: Mus musculus; Table 4; CT26, MSS (48hr); read-out: IC50(mean±SD)
Experimental: as §1

SMILES | PD-L1 expression (PD-L1; MSS cell lines (SW620, LS513, and CT26), compared with HDAC6 and HDAC8) | PD-L1 expression (PD-L1; mouse cells) | IC50 (DLD-1) | IC50 (SW620) | IC50 (LS513) | PD-L1 expression at the RNA and protein levels (PD-L1; MSS cell lines (SW620, LS513, and CT26), FIG. 6) | B7H3 expression (PD-L1 and B7H3) | PD-L1 expression (PD-L1 and B7H3) | body weight of the mice (CT26 [1]) | PD-L1 expression at the RNA and protein levels (PD-L1; MSS cell lines (SW620, LS513, HT29, and CT26), FIG. 4) | IC50 (HT29) | IC50 (CT26 [2])
Nc1cc(F)ccc1NC(=O)/C=C/c1cnn(C/C=C/c2ccccc2)c1 [RGFP966] | small increases | decrease tendency | 119 µM | 23.8 µM | 43.1 µM | – | – | – | – | – | – | –
COc1ccc(Cn2ccc3ccc(C(=O)NO)cc32)cc1 [PCI-34051] | – | – | 6.36 µM | 31.8 µM | 19.6 µM | increase | – | – | – | – | – | –
CCCCN(Cc1ccc(C(=O)NO)cc1)C(=O)Nc1ccccc1 [Nexturastat A] | – | – | 10.8 µM | 6.8 µM | 26.9 µM | – | distinct increase tendencies | distinct increase tendencies | not reduced | increase | 11.3 µM | 27.1 µM

Source: patent publication EP4595976A1, “COMPOSITION FOR TREATING CANCER CONTAINING HISTONE DEACETYLASE INHIBITOR, AND ANTICANCER ADJUVANT FOR CANCER IMMUNOTHERAPY” (Samsung Life Public Welfare Foundation, priority 2022, dated 2024)
